Data taken from article PMC9243654 (Frontiers in Nutrition, 2022).
Like-named read-outs stand apart in the source and are kept apart here. One block for each molecule: values may come before it.

What was measured:
in vitro = assay: in vitro
Method: The PAMPA-BBB assay was conducted according to the methodology followed by Di et al., with some modifications as described below ([15]). First, the BBB solution was prepared by dissolving 8 mg of PBL and 4 mg of cholesterol in 600 μl of n-dodecane. The initial donor solution was prepared by mixing 1 ml of extract (10 mg ml^−1 in EtOH) with 1 ml of buffer (PBS, pH = 7.4, 10 mM). The filter membrane of the donor plate was carefully coated with 5 μl of BBB solution. The acceptor plate was filled with 350 μl of buffer, and the donor plate was carefully assembled over the acceptor plate like a “sandwich.” Finally, the donor plate was filled with 350 μl of donor solution, covered, and incubated for 4 h at 37°C in the dark. After incubation time, 300 μl of the solution was taken from both plates, transferred to separate vials, and dried in the SpeedVac system at 40°C and 13 mbar pressure. Dried acceptor and donor solution were dissolved in 50 μl of pure EtOH before subjecting to UHPLC-Q-TOF-MS analysis. Permeability across in vitro BBB of the bioactive compound was measured according to Equation (1) ([25]), with some modifications in concentration rates.
(1) Pe=-ln[1-CA(t)/Ce]/A^*(1/VD+1/VA)^*t
Cequilibrium was calculated according to the following equation ([2]):
(2) Cequilibrium=[CD(t)*VD+CA(t)*VA]/(VD+VA)

[1] = ref PubChem database, cited from earlier work
[2] = compounds of RSFE extract, octanol-water partition coefficient
[3] = compound within LPLE (Nothofagus pumilio, lenga PLE extract), classes based on Könczöl et al.
[4] = compounds identified in LPLE extract
[5] = compound within KD extract, 4 h, 37°C, PBS pH 7.4

Cross BBB potential (in vitro; PAMPA): +++
PAMPA-BBB log Pe (cm s−1) (in vitro; PAMPA, 4 h, pH 7.4): −4.36 cm s−1
Structure (SMILES): COc1cc2oc(-c3ccc(O)cc3)cc(=O)c2c(O)c1OC [Crisimaritin]
Log P [1, 2]: 2.0

Structure (SMILES): C[C@@H]1C(=O)C[C@@H](C(C)(C)O)O[C@@H]2C[C@@]3(C)[C@@H]4CC=C5[C@@H](C=C(O)C(=O)C5(C)C)[C@]4(C)C(=O)C[C@]3(C)[C@@H]12 [Cucurbitacin S]
Cross BBB potential (in vitro; [3]): -
Log P [1, 4]: 3.2
Log P ([1]; compounds of ASFE extract): 3.2

Structure (SMILES): CC12O[C@H]3C[C@@H](O1)[C@]1(C=O)[C@H]4[C@H](O)C(=O)[C@]5(C)[C@@H](c6ccc(=O)oc6)CC[C@]5(O)[C@@H]4CC[C@@]1(C3)O2 [Daigremontianin]
detection in the acceptor plate of PAMPA-BBB (in vitro; PAMPA): could not be found in the acceptor plate
Cross BBB potential (in vitro; compound within KD extract): ++ (log Pe > −5.5)
PAMPA-BBB log Pe (cm s−1) (in vitro; [5]): −4.53 cm s−1
Log P ([1]; compounds of KD extract): −0.3

Structure (SMILES): O=c1ccc2cc(O[C@@H]3O[C@H](CO)[C@@H](O)[C@H](O)[C@H]3O)c(O)cc2o1 [Esculin]
Cross BBB potential (in vitro; PAMPA): +++ (key: -: not detected in acceptor; +: log Pe > −6.5; ++: log Pe > −5.5; +++: log Pe > −4.5)
Papp (in vitro; PAMPA, pH 7.4, PAMPA-BBB log Pe (cm s−1)): 50.1 ×10⁻⁶ cm/s
Log P [1, 2]: −0.6

Structure (SMILES): COc1c(O)cc2oc(-c3ccc(O)c(O)c3)cc(=O)c2c1O [Eupafolin]
Papp at 4 h (in vitro; PAMPA, pH 7.4, PAMPA-BBB log Pe (cm s−1), compound within KD extract, 4 h, 37°C, PBS pH 7.4): 339 ×10⁻⁶ cm/s
Cross BBB potential (in vitro; compound within KD extract): +++ (log Pe > −4.5)
Log P ([1]; compounds of KD extract): 1.4

Cross BBB potential (in vitro; compound within ASFE extract): -
Cross BBB potential (in vitro; [3]): -
Structure (SMILES): COc1cc(/C=C/C(=O)OC(C(=O)O)C(O)C(=O)O)ccc1O (centres unmarked) [Fertaric acid]
Log P [1, 4]: 0.4
Log P ([1]; compounds of ASFE extract): 0.4

Cross BBB potential (in vitro; PAMPA): +++
PAMPA-BBB log Pe (cm s−1) (in vitro; PAMPA, 4 h, pH 7.4): −4.41 cm s−1
Structure (SMILES): CC(C)c1cc2c(c(O)c1O)[C@@]13CCCC(C)(C)[C@@H]1[C@H](OC3=O)C2=O [Galdosol]
Log P [1, 2]: 4

Structure (SMILES): CC(CC(=O)C[C@@H](C)[C@H]1C[C@H](O)[C@@]2(C)C3=C(C(=O)C[C@]12C)[C@@]1(C)CC[C@H](O)C(C)(C)[C@@H]1CC3)C(=O)O (some centres unmarked) [Ganolucidic acid B]
Cross BBB potential (in vitro; compound within ASFE extract): -
Cross BBB potential (in vitro; [3]): -
Log P [1, 4]: 3.8
Log P ([1]; compounds of ASFE extract): 3.8

Cross BBB potential (in vitro; compound within ASFE extract): -
Cross BBB potential (in vitro; [3]): -
Structure (SMILES): CC(CC(=O)CC(C)C1CC(O)C2(C)C3=C(C(=O)CC12C)C1(C)CCC(O)C(C)(CO)C1CC3)C(=O)O (centres unmarked) [Ganolucidic acid C]
Log P [1, 4]: 3.1
Log P ([1]; compounds of ASFE extract): 3.1

Structure (SMILES): CC(=O)O[C@H]1CC[C@]2(CO)[C@H]3CC[C@]4(C)[C@@H](c5ccc(=O)oc5)CC[C@]4(O)[C@@H]3CC[C@]2(O)C1 [Hellebrigenol-3-monoacetate]
Cross BBB potential (in vitro; compound within KD extract): ++ (log Pe > −5.5)
PAMPA-BBB log Pe (cm s−1) (in vitro; [5]): −4.70 cm s−1
Log P ([1]; compounds of KD extract): 1.6

Structure (SMILES): COc1ccc([C@@H]2CC(=O)c3c(O)cc(O)cc3O2)cc1O [Hesperetin]
Papp at 4 h (in vitro; PAMPA, pH 7.4, PAMPA-BBB log Pe): 5.01 ×10⁻⁶ cm/s
Log P [1, 4]: 2.4

Structure (SMILES): COc1ccc([C@@H]2CC(=O)c3c(O)cc(O[C@@H]4O[C@H](CO[C@@H]5O[C@@H](C)[C@H](O)[C@@H](O)[C@H]5O)[C@@H](O)[C@H](O)[C@H]4O)cc3O2)cc1O [Hesperidin]
Cross BBB potential (in vitro; compound within ASFE extract): -
Cross BBB potential (in vitro; [3]): -
Log P [1, 4]: −1.1
Log P ([1]; compounds of ASFE extract): −1.1

Structure (SMILES): O=C(O)CCCCCCCCCCCCCCC(=O)O [Hexadecanedioic acid]
Cross BBB potential (in vitro; compound within ASFE extract): -
Cross BBB potential (in vitro; [3]): -
Log P [1, 4]: 5.4
Log P ([1]; compounds of ASFE extract): 5.4

Structure (SMILES): CC(C)c1cc2c(cc1O)C1(C)CCC(=O)C(C)(C)C1CC2 (centres unmarked) [Hinokione]
Cross BBB potential (in vitro; compound within RSFE extract): -
Log P [1, 2]: 4.9

Cross BBB potential (in vitro; PAMPA): +++
PAMPA-BBB log Pe (cm s−1) (in vitro; PAMPA, 4 h, pH 7.4): −4.24 cm s−1
Structure (SMILES): COc1c(O[C@@H]2O[C@H](CO)[C@@H](O)[C@H](O)[C@H]2O)cc2oc(-c3ccc(O)cc3)cc(=O)c2c1O [Homoplantaginin]
Log P [1, 2]: 0.8

Structure (SMILES): COc1cc(-c2oc3cc(O)cc(O)c3c(=O)c2O[C@@H]2O[C@H](CO)[C@@H](O)[C@H](O)[C@H]2O)ccc1O [Isorhamnetin-3-O-glucoside]
Cross BBB potential (in vitro; compound within RSFE extract): -
Log P [1, 2]: 0.7

Cross BBB potential (in vitro; compound within KD extract): -
Structure (SMILES): O=c1c(O[C@@H]2O[C@H](CO)[C@@H](O)[C@H](O)[C@H]2O)c(-c2ccc(O)cc2)oc2cc(O)cc(O)c12 [Kaempferol 3-O-β-D-glucoside]
Log P ([1]; compounds of KD extract): 2.37
